Measurements from patent US10632179B2, “Methods and compositions for treating cancer” (Case Western Reserve University, priority 2013, dated 2020).

Test system: heterotopic GBM flank tumor model
Assay: Heterotopic xenograft flank tumor treatment with peptide
Assay type: in vivo, nude mice
Set-up: dose or concentration left out as unconfirmed
Settings: flank tumors of mice intravenously administered peptide; compared with scrambled control polypeptide; FIG. 2
Description: In this Example, we tested the efficacy of the SBK2 peptide in treating primary human brain tumor xenografts. The studies were performed using an imaging dose of the SBK2 peptide probe in 3 sequential injections that were two days apart in a heterotopic GBM flank tumor model.
Human Gli36Δ5 glioblastoma cells constitutively over-express the vIII mutant forms of the EGFR gene (Tyminski E, Leroy S, Terada K, Finkelstein D M, Hyatt J L, Danks M K, Potter P M, Saeki Y, Chiocca E A (2005) Brain tumor oncolysis with replication-conditional herpes simplex virus type 1 expressing the prodrug-activating genes, CYP2B1 and secreted human intestinal carboxylesterase, in combination with cyclophosphamide and irinotecan. Cancer Res 65:6850-6857). Human LN-229 glioblastoma cells were obtained from American Type Culture Collection, Manassas, Va. Gli36Δ5 or LN-229 cells were harvested for flank implantation by trypsinization. […]
On each peptide treatment day, flank tumors were imaged using the Maestro FLEX In Vivo Imaging System. […] Tumors were measured through the skin using calipers; length, width and height of the tumors were recorded on each treatment day. On the day the animals were sacrificed, tumors were measured before removal (through the skin) and after removal.

GEGDDFNWEQVNTLTKPTSD [SBK2]
reduction in tumor volume: 50% | reduction in weight (flank tumor): 35%
